We go through 4 molecules from ChEMBL document CHEMBL1132517, “Nitrobenzyl carbamate prodrugs of enediynes for nitroreductase gene-directed enzyme prodrug therapy (GDEPT)” (Bioorg Med Chem Lett, 1999).

A short description of experiment [1]: Oxygen dependence of cytotoxicity was assessed by clonogenic assay using stirred suspension cultures of AA8 cells after 1 hr under anoxic conditions. The experiment is classed as functional, Cricetulus griseus, CHO-AA8.
Experiment [2] in a line: Oxygen dependence of cytotoxicity was assessed by clonogenic assay using stirred suspension cultures of AA8 cells after 4 hr under anoxic conditions. It counts as functional, Cricetulus griseus, CHO-AA8.
A short description of experiment [3]: Oxygen dependence of cytotoxicity was assessed by clonogenic assay using stirred suspension cultures of AA8 cells after 1 hr under aerobic conditions. The experiment is classed as functional, Cricetulus griseus, CHO-AA8.
A short description of experiment [4]: Oxygen dependence of cytotoxicity was assessed by clonogenic assay using stirred suspension cultures of AA8 cells after 4 hr under aerobic conditions. It counts as functional, Cricetulus griseus, CHO-AA8.
In experiment [5] the test system is SK-OV-3. The experiment in a line: In vitro cytotoxicity against SKOV-3 cells in the absence of co-factor. It counts as functional, cell-based. The note with it: Homo sapiens.
Experiment [6] relates to SK-OV-3. The experiment is described as follows: In vitro cytotoxicity against SKOV-3 cells in the presence of 1 mM NADH co-factor. It counts as functional, cell-based. To be noted: Homo sapiens.
The test system of experiment [7] is SK-OV-3. The experiment in a line: In vitro cytotoxicity against SKOV-3 cells in the presence of 1 mM NADH co-factor and 1 ug/mL Escherichia coli B nitroreductase (NTR). It counts as functional, cell-based. The note with it: Homo sapiens.
The subject of experiment [8] is WiDr. The experiment is described as follows: (§1) Ratio of cytotoxicities against WiDr cell line to NTR transfectant. It counts as functional, Homo sapiens.
Experiment [9] can be described thus: Oxygen dependence of cytotoxicity was assessed by clonogenic assay using stirred suspension cultures of ERCC-1 mutant UV4 cells after 1 hr under anoxic conditions. The experiment is classed as functional, Cricetulus griseus.
Experiment [10] can be described thus: Oxygen dependence of cytotoxicity was assessed by clonogenic assay using stirred suspension cultures of ERCC-1 mutant UV4 cells after 4 hr under anoxic conditions. The experiment is classed as functional, Cricetulus griseus.
Experiment [11] in a line: Oxygen dependence of cytotoxicity was assessed by clonogenic assay using stirred suspension cultures of ERCC-1 mutant UV4 cells after 1 hr under aerobic conditions. It counts as functional, Cricetulus griseus.
Experiment [12] relates to WiDr. The experiment is described as follows: In vitro cytotoxicity against man colon carcinoma line WiDr cell lines transfected with Escherichia coli B nitroreductase (NTR). The experiment is classed as functional, cell-based. To be noted: Homo sapiens.
A short description of experiment [13]: Oxygen dependence of cytotoxicity was assessed by clonogenic assay using stirred suspension cultures of ERCC-1 mutant UV4 cells after 4 hr under aerobic conditions. The experiment is classed as functional, Cricetulus griseus.
Experiment [14] is described as follows: Ratio of oxygen dependence of cytotoxicities of UV4 cells in aerobic condition to anoxic condition. The experiment is classed as functional.
A short description of experiment [15]: Ratio of cytotoxicities against SKOV-3 cell line to NTR transfectant. It counts as functional, SK-OV-3.
Experiment [16] in a line: Ratio of cytotoxicities against T78-1 cell line to NTR transfectant. The experiment is classed as functional.
Experiment [17] can be described thus: Ratio of cytotoxicity against SKOV-3 cells in the absence of co-factor to the cytotoxicity in the presence of co-factor and NTR. The experiment is classed as functional, SK-OV-3.
The test system of experiment [18] is T78-1. The experiment in a line: In vitro cytotoxicity against Chinese hamster V79-derived cell line T78-1 transfected with Escherichia coli B nitroreductase (NTR). The experiment is classed as functional, cell-based. The note with it: Cricetulus griseus.
The nature of experiment [19]: Oxygen dependence of cytotoxicity was assessed by clonogenic assay using stirred suspension cultures of AA8 cells after 3h under anoxic conditions. The experiment is classed as functional, Cricetulus griseus, CHO-AA8.
The nature of experiment [20]: Ratio of oxygen dependence of cytotoxicities of AA8 cells in aerobic condition to anoxic condition. The experiment is classed as functional, Cricetulus griseus, CHO-AA8.
A short description of experiment [21]: Oxygen dependence of cytotoxicity was assessed by clonogenic assay using stirred suspension cultures of AA8 cells after 3h under aerobic conditions. It counts as functional, Cricetulus griseus, CHO-AA8.
Experiment [22] is described as follows: Oxygen dependence of cytotoxicity was assessed by clonogenic assay using stirred suspension cultures of ERCC-1 mutant UV4 cells after 3h under anoxic conditions. The experiment is classed as functional, Cricetulus griseus.
Experiment [23] can be described thus: Oxygen dependence of cytotoxicity was assessed by clonogenic assay using stirred suspension cultures of ERCC-1 mutant UV4 cells after 3h under aerobic conditions. It counts as functional, Cricetulus griseus.
Experiment [24] has as its system SK-OV-3. The experiment is described as follows: In vitro for cytotoxicity against SKOV-3 cells in the presence of 1 mM NADH co-factor. The experiment is classed as functional, cell-based. The note with it: Homo sapiens.
The subject of experiment [25] is SK-OV-3. The experiment in a line: In vitro for cytotoxicity against SKOV-3 cells in the presence of 1 mM NADH co-factor and 1 ug/mL Escherichia coli B nitroreductase (NTR). The experiment is classed as functional, cell-based. The note with it: Homo sapiens.
A short description of experiment [26]: as §1. The experiment is classed as functional.
Experiment [27] is described as follows: Oxygen dependence of cytotoxicity was assessed by clonogenic assay using stirred suspension cultures of ERCC-1 mutant UV4 cells after 8 hr under anoxic conditions. The experiment is classed as functional, Cricetulus griseus.
A short description of experiment [28]: Oxygen dependence of cytotoxicity was assessed by clonogenic assay using stirred suspension cultures of ERCC-1 mutant UV4 cells after 8 hr under aerobic conditions. It counts as functional, Cricetulus griseus.

“And” between values parts separate entries of the source, which are not always exact repeats. Equal values may be shown once. Where only a bound is given, the exact number is not on record here.

Broadly, the IC50 is the concentration that inhibits the measured activity by half. Consider `O=C(OCc1ccc([N+](=O)[O-])cc1)N1c2ccc(OCCO)cc2[C@@]23O[C@]24CCC[C@H]3C#C/C=C\C#C[C@H]14`, for which the “C10 N2” value in experiment [1] is over 100 µM; in experiment [2] it was over 100 µM; in experiment [9], 60 µM; in experiment [10], 12 µM. In addition, the C10 air was found to be 75 µM in [3], 22 µM in experiment [4], 40 µM in [11] and 11 µM in [13]. For the same molecule, the IC50 stood at 500 nM in [5]; 500 nM in experiment [6]; 39 nM in experiment [7]; 1810 nM in experiment [12]; 2400 nM in experiment [18]. For the same molecule, the Selectivity came to 135 in experiment [8], 21.3 in experiment [15], 111 in experiment [16] and 13 in experiment [17]. Also, the “C10 air/C10 N2” value in experiment [14] was 1.5 and 1.1.

Turning to `O=C(OCc1ccccc1[N+](=O)[O-])N1c2ccccc2[C@@]23O[C@]24CCC[C@H]3C#C/C=C\C#C[C@H]14`, the “C10 N2” value worked out at 200 µM in experiment [19] and 53 µM in [22]. Also, the “C10 air/C10 N2” value in experiment [20] is over 1.7; in experiment [14], 0.4. In addition, the C10 air was found to be 120 µM in experiment [21] and 140 µM in experiment [23]. Further, the IC50 in [5] was over 20000 nM; in experiment [6], over 20000 nM; in experiment [7], over 20000 nM; in experiment [12], over 20000 nM; in [18], 8900 nM. In addition, the Selectivity in experiment [16] was determined as 1.9.

Consider `NC(=O)c1cc(N2CC2)c([N+](=O)[O-])cc1[N+](=O)[O-]` [TRETAZICAR], for which the results for the IC50 in experiment [24], in experiment [25] and in experiment [12] were 760 nM, 1010 nM and 565000 nM, respectively. The Selectivity in [15] is 357; in [16], 1630; in [26], 51; in experiment [17] it was 183.

Consider `O=C(OCc1ccc([N+](=O)[O-])cc1)N1c2ccccc2[C@@]23O[C@]24CCC[C@H]3C#C/C=C\C#C[C@H]14`, for which the results for the “C10 N2” value in experiment [19], in [22] and in [27] were over 100 µM, over 100 µM and 70 µM, respectively. Also, the C10 air is over 100 µM in [21], over 100 µM in experiment [23] and 70 µM in experiment [28]. Also, the IC50 in experiment [5] is 20400 nM; in experiment [6], over 20000 nM; in experiment [7], 260 nM; in experiment [12], 8400 nM; in experiment [18], 11100 nM. In addition, in [14], the ratio was 1. Besides, the Selectivity in [15] came out at 264; in experiment [16], 54; in experiment [26] it was 97; in experiment [17] it was 95.9.
